Source: patent US5169854A, “N-substituted-furylalkenyl hydroxamic acid and N-hydroxyurea compounds having lipoxygenase inhibitory activity” (Abbott Laboratories, priority 1992, dated 1992)

Key:
Leukotriene Biosynthesis = experiment: Inhibition of leukotriene biosynthesis in vivo after oral administration, rat peritoneal anaphylaxis model; conditions: oral gavage 100 μmol/kg, one hour prior to antigen challenge, peritoneal fluid leukotrienes 15 min after challenge
Procedure: Inhibition of the biosynthesis of leuktrienes in vivo after oral administration of compound was determined using a rat peritoneal anaphylaxis model in a similar manner as that described by Young and coworkers (Young, P. R.; Dyer, R. D.; Carter, G. W. Fed. Proc., Fed. Am. Soc. Exp. Biol. 1985 (44), 1185). In this model rats were injected intraperitoneally (ip) with rabbit antibody to bovine serum albumin (BSA) and three hours later injected ip with BSA to induce an antgen-antibody response. Rats were sacrificed 15 minutes after this challenge and the peritoneal fluids were collected and analyzed for leukotriene levels. Test compounds were administered by gavage one hour prior to the antigen challenge. Percent inhibition values were determined by comparing the treatment group to the mean of the control group.

5-Lipoxygenase = target: T1, 5-Lipoxygenase (Homo sapiens, UniProt P09917); experiment: Inhibition of calcium ionophore A23187-induced LTB4 biosynthesis in human whole blood (5-Lipoxygenase Inhibitory Activity); assay type: cell-based; parameters: endogenous in cells; host or cells: human heparinized whole blood (blood leukocytes)
T1 sequence (P09917 1-674): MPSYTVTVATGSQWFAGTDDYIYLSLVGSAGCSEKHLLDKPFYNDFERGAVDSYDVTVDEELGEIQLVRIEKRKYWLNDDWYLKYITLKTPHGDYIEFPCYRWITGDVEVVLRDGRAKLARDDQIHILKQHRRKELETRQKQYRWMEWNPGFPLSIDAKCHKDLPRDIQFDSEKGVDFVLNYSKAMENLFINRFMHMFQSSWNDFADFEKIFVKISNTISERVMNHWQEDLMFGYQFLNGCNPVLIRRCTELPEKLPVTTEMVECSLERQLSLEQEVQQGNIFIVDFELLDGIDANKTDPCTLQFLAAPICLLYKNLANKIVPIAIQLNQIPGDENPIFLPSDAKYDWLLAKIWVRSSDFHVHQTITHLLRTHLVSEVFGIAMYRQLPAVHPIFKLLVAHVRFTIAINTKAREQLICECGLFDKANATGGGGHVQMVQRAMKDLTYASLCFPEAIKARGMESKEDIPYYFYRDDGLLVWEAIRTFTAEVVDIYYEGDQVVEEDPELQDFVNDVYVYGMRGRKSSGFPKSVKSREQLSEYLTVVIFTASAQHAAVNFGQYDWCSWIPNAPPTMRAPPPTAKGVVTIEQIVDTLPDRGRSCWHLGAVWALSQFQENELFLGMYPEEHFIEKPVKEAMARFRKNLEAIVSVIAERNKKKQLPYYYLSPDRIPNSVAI
Procedure: Inhibition of leukotriene biosynthesis was evaluated in an assay, involving calcium ionophore-induced LTB4 biosynthesis expressed human whole blood. Human heparinized whole blood was preincubated with test compounds or vehicle for 15 min at 37° C. followed by calcium ionophore A23187 challenge (final concentration of 8.3 μM) and the reaction terminated after 30 min by adding two volumes of methanol containing prostaglandin B2 as an internal recovery standard. The methanol extract was analyzed for LTB4 using a commercially available radioimmunoassay.

Row | IC50 (5-Lipoxygenase; human heparinized whole blood, LTB4 by radioimmunoassay, A23187 8.3 μM, 15 min preincubation at 37° C.) [nM] | 5-Lipoxygenase Inhibitory Activity, percent inhibition (5-Lipoxygenase; at 0.39 (10^-6 M), human whole blood LTB4) [%] | Compound | Percent Inhibition of Leukotriene Biosynthesis at an Oral Dose of 100 μmol/kg (Leukotriene Biosynthesis) [%]
1 | 160 |  | CC(/C=C/c1ccc(Oc2ccc(F)cc2)o1)N(O)C(N)=O (stereo not shown) [Example 1, E-N-[4-(5-(4-Fluorophenoxy)-2-furanyl)but-3-en-2-yl]-N-hydroxyurea] | 98
2 |  |  | NC(=O)N(O)CC=Cc1ccc(Oc2ccccc2)o1 [Example 2, N-hydroxy-N-[3-(5-phenoxyfur-2-yl)prop-2-enyl]urea] | 99
3 |  | 77 | Z-N-[4-(5-(4 -fluorophenoxy)-2-furanyl)-2-fluorobut-3-en-2-yl]-N-hydroxyurea [Example 3] | 
